31 molecules from patent US11021481B2, “Substituted isoindolin-1-ones and 2,3-dihydro-1h-pyrrolo[3,4-c]pyridin-1-ones as HPK1 antagonists” (Nimbus Saturn, Inc., priority 2019, dated 2021) can be followed below.

The IC50 is the midpoint of a concentration-inhibition curve.

A value given as a limit tells only on which side of the number the result lay.

Chain of HPK1 (Q92918 whole entry): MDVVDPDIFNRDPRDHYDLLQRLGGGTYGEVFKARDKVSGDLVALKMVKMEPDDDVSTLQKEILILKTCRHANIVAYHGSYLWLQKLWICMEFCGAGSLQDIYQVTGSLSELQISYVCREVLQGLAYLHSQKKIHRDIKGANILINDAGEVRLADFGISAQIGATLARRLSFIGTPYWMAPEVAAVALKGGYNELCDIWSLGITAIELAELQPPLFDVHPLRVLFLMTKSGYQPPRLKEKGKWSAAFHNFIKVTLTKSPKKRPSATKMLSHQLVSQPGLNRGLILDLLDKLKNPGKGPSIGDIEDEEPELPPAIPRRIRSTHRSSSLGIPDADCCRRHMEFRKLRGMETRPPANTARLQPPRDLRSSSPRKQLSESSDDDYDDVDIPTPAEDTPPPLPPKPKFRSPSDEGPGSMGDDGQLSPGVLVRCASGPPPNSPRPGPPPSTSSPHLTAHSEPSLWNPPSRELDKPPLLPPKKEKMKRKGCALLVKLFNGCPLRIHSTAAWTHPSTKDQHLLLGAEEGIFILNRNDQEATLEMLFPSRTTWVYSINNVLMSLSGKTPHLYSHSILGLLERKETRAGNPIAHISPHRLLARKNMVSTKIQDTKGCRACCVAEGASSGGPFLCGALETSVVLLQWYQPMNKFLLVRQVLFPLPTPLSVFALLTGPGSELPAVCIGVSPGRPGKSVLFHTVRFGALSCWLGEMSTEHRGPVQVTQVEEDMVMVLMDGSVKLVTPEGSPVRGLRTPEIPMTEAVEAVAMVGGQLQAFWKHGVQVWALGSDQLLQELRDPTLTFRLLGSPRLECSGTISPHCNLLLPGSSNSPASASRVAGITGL

The assay concerns the target HPK1 (Homo sapiens (Human), UniProt Q92918). Nature of the assay: HPK1 biochemical enzyme assay (microfluidic mobility shift assay). The following applies: 1.5 nM HPK1, ATP 1 mM final, 30 min preincubation, 60 min at RT, Caliper EZ Reader; read-out: HPK1 1000UMATP caliper IC50. The gist of the method: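 Mobility shift readout of HPK1 activity after a 60 min RT reaction with 1 mM ATP, 1 μM substrate and 5 mM MgCl2. Enzyme/substrate mix was first exposed to compounds for 30 min, using ten-point curves topping at 3 μM final.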
In the case of `Cn1ccc2c(-c3ncc(Nc4ccc(N5CCNCC5)cn4)c4c3CNC4=O)ccnc21` [I-258, 4-(1-methyl-1H-pyrrolo[2,3-b]pyridin-4-yl)-7-((5-(piperazin-1-yl)pyridin-2-yl)amino)-2,3-dihydro-1H-pyrrolo[3,4-c]pyridin-1-one], the 50% inhibitory concentration (IC50) is less than 100 nM.

Consider `Cn1ccc2c(-c3ccc(Nc4ccc(N5CCC[C@@H](N)C5)cn4)c4c3CNC4=O)ccnc21` [I-95, 7-[[5-[(3R)-3-amino-1-piperipyl]-2-pyridyl]amino]-4-(1-methylpyrrolo [2,3-b]pyridin-4-yl)isoindolin-1-one], for which the half-maximal inhibitory concentration (IC50) was less than 100 nM.

Take `Cn1nc(Nc2ccc(-c3ccnc4c3ccn4C)c3c2C(=O)NC3)cc1C1CCOCC1` [I-129, 4-(1-methylpyrrolo [2,3-b]pyridin-4-yl)-7-[(1-methyl-5-tetrahydropy-ran-4-yl-pyrazol-3-yl)amino]isoin-dolin-1-one]: the IC50 was less than 100 nM.

`Cc1cnn2c(-c3ccc(Nc4ccc(N5CCC(O)CC5)cn4)c4c3CNC4=O)cnc2c1` [I-184, 7-[[5-(4-hydroxy-1-piperidyl)-2-pyripyl]amino]-4-(7-methylimidazo [1,2-b]pyridazin-3-yl)isoindolin-1-one]: the IC50 is less than 100 nM.

Consider `O=C1NCc2c(-c3cnc4cc(F)ccn34)ncc(Nc3ccc(N4CCCC(O)(CN5CCOCC5)C4)cn3)c21` (stereo not shown) [I-654, 4-(7-fluoroimidazo [1,2-a]pyridin-3-yl)-7-((5-(3-hydroxy-3-(morpholinomethyl)piperidin-1-yl)pyridin-2-yl)amino)-2.3-dihydro-1H-pyrrolo[3,4-c]pyridin-1-one], for which the IC50 was less than 100 nM.

For the molecule `CN(C)[C@@H]1CCCc2ccc(Nc3ccc(-c4cnc5cc(F)ccn45)c4c3C(=O)NC4)nc21` [I-842, (R)-7-((8-(dimethylam-ino)-5,6,7,8-tetrahydroquin-olin-2-yl)amino)-4-(7-fluoroimidazo [1,2-a]pyridin-3-yl)isoindo1in-1-one], the IC50 was less than 100 nM.

“7-[[5-[(2R)-2- (1-hydroxy-1- methylethyl)morpholin- 4-yl]-2- pyridyl]amino]- 4-imidazo[1,2- a]pyrazin-3-yl- isoindolin-1-one [I-486]”: the IC50 is less than 100 nM.

As to `Cn1ccc2c(-c3ccc(Nc4ccc(N5CCC[C@H](C(C)(C)O)C5)cn4)c4c3CNC4=O)ccnc21` (single isomer, unassigned) [I-280], the IC50 was less than 100 nM.

Consider `O=C1NCc2c(-c3cnc4cc(F)ccn34)ccc(Nc3ccc(N4CCOC[C@@H](O)C4)cn3)c21` [I-339, (S)-4-(7-fluoroimidazo [1,2-a]pyridin-3-yl)-7-((5-(6-hydroxy-1,4-oxazepan-4-yl)pyridin-2-yl)amino)isoin-dolin-1-one], for which the IC50 was less than 100 nM.

Take `CN1CCN(c2ccc(Nc3ccc(-c4c[nH]c5ccncc45)c4c3C(=O)NC4)nc2)CC1` [I-24, 7-((5-(4-methylpiperazin-1-yl)pyridin-2-yl)amino)-4-(1H-pyrrolo[3,2-c]pyridin-3-yl)isoindolin-1-one]: the IC50 was less than 100 nM.

For `O=C1NCc2c(-c3ccnn4cccc34)ncc(Nc3ccc(N4CCC(O)CC4)cn3)c21` [I-588, 7-((5-(4-hydroxypiperidin-1-yl)pyridin-2-yl)amino)-4-(pyrrolo[1,2-b]pyridazin-4-yl)-2,3-dihydro-1H-pyrrolo[3,4-c]pyridin-1-one], the IC50 is more than 1000 nM.

Regarding `Cc1ccn2c(-c3ccc(Nc4ccc(N5CC[C@H](F)[C@@H](O)C5)cn4)c4c3CNC4=O)cnc2c1F` [I-584, 7-((5-((3S.4S)-4-fluoro-3-hydroxypiperidin-1-yl)pyridin-2-yl)amino)-4-(8-fluoro-7-methylimidazo [1,2-a]pyridin-3-yl)isoindolin-1-one], the IC50 was less than 100 nM.

With `Cn1ccc2c(-c3c(Cl)cc(Nc4ccc(N5CCC(O)CC5)cn4)c4c3CNC4=O)ccnc21` [I-190, 5-chloro-7-[[5-(4-hydroxy-1-piperidyl)-2-pyridyl]amino]-4-(1-methylpyrrolo[2,3-b]pyridin-4-yl)isoindolin-1-one], the IC50 was less than 100 nM.

On to `Cc1cccn2c(-c3ccc(Nc4ccc(N5CCC(O)(CN6CCN(C)CC6)CC5)cn4)c4c3CNC4=O)cnc12` [I-402, 7-((5-(4-hydroy-4-((4-methylpiperazin-1-yl)methyl)piper-idin-1-yl)pyridin-2-yl)amino)-4-(8-methylimidazo [1,2-a]pyridin-3-yl)isoindolin-1-one], for which the IC50 is less than 100 nM.

For `C[C@@H]1NC(=O)c2c(Nc3ccc(N4CCC(O)CC4)cn3)ccc(-c3cnc4ccccn34)c21` [I-316, (S)-7-((5-(4-hydroxypip-eridin-1-yl)pyridin-2-yl)amino)-4-(imidazo[1,2-a]pyridin-3-yl)-3-methylisoindo-lin-1-one], the IC50 was more than 1000 nM.

Take `CO[C@@H]1CC[C@@H](CO)N(c2ccc(Nc3ccc(-c4cnn5c4CCCC5)c4c3C(=O)NC4)nc2)C1` (stereo in doubt) [I-572, 7-((5-((2R,5R)-2-(hydroxymeth-yl)-5-methoxy-piperidin-1-yl)pyridin-2-yl)amino)-4-(4,5,6,7-tetralndropyra-zolo[1,5-a]pyridin-3-yl)isoindolin-1-one]: the IC50 is less than 100 nM.

As for “(R)-7-((5-(4-hydroxypiperidin-1-yl)pyridin-2-yl)amino)-3-methyl-4-(1-methyl-1H-pyrrolo[2,3-b]pyridin-4-yl)isoindolin-1-one [I-287]”, the IC50 was less than 100 nM.

Turning to `Cc1cnc2c(ccn2C)c1-c1ccc(Nc2ccc(N3CCNCC3)cn2)c2c1CNC2=O` [I-99, 4-(l,5-dimethylpyrrolo [2,3-b]pyridin-4-yl)-7-[(5-piperazin-1-yl-2-pyridyl)amino] isoindolin-1-one], the IC50 was in the range of 100 to 1000 nM.

As for `C[C@H](c1ccc(Nc2ccc(-c3cnc4cc(F)ccn34)c3c2C(=O)NC3)nc1)N1CCC(O)CC1` [I-527, (R)-4-(7-fluoroimidazo [1,2-a]pyridin-3-yl)-7-((5-(1-(4-hydroxypiperidin-1-yl)ethyl)pyridin-2-yl)amino)isoin-dolin-1-one], the IC50 is less than 100 nM.

As to `CNC1CCN(c2ccc(Nc3cnc(-c4ccnc5c4ccn5C)c4c3C(=O)NC4)nc2)CC1(F)F` (stereo not shown) [I-453, 7-[[5-[3,3-difluoro-4-(methylamino)-1-piperidyl]-2-pyridyl]amino]-4-(1-methylpyrrolo [2,3-b]pyridin-4-yl)-2,3-dihydropyrrolo [3,4-c]pyridin-1-one], the IC50 is less than 100 nM.

In the case of `O=C1NCc2c(-c3cnc4cc(F)ccn34)ccc(Nc3ccc([C@H]4CCOC4)c(CN4CC[C@H](O)C4)n3)c21` [I-778, 4-(7-fluoroimidazo[1,2-a]pyridin-3-yl)-7-((6-(((S)-3-hydroxypyrrolidin-1-yl)methyl)-5-((R)-tetrahydrofuran-3-yl)pyridin-2-yl)amino)isoindolin-1-one], the half-inhibitory concentration (IC50) was less than 100 nM.

For `CN[C@@H]1CCCN(c2ccc(Nc3ccc(-c4ccnc5c4ccn5C)c4c3C(=O)NC4)nc2)C1` [I-100, 7-[[5-[(3R)-3-(methviamino)-1-piperidyl]-2-pyridyl]amino]-4-(1-methylpyrrolo [2,3-b]pyridin-4-yl)isoindolin-1-one], the IC50 was less than 100 nM.

For `Cn1ccc2c(-c3ncc(Nc4cccc(N5C[C@H](N)CC5=O)n4)c4c3CNC4=O)ccnc21` [I-691, (R)-7-((6-(4-amino-2-oxopyrrolidin-1-yl)pyridin-2-yl)amino)-4-(1-methyl-1H-pyrrolo[2,3-b]pyridin-4-yl)-2,3-dihydro-1H-pyrrolo[3,4-c]pyridin-1-one], the IC50 is less than 100 nM.

In the case of `CN1CCN(c2cccc(Nc3ccc(-c4cnc5cnccn45)c4c3C(=O)NC4)n2)CC1` [I-234, 4-imidazo[1,2-a]pyrazin-3-yl-7-[[6-(4-methylpiperazin-1-yl)-2-pyridyl]-amino]isoindolin-1-one], the IC50 was 100 to 1000 nM.

As for `C[C@H](O)[C@@H]1CCCN(c2ccc(Nc3ccc(-c4cnc5cc(F)ccn45)c4c3C(=O)NC4)nc2)C1` (stereo in doubt) [I-363, 4-(7-fluoroimidazo [1,2-a]pyridin-3-yl)-7-((5-((S)-3-((R)-1-hydroxyethyl)piperidin-1-yl)pyridin-2-yl)amino)isoin-dolin-1-one], the IC50 is less than 100 nM.

Take `CN(C)Cc1nc(Nc2cnc(-c3ccnc4c3ccn4C)c3c2C(=O)NC3)ccc1[C@@H]1CCOC1` (stereo in doubt) [I-707]: the IC50 was less than 100 nM.

In the case of `CN(C)C(C)(C)C1CCCN(c2ccc(Nc3ccc(-c4cnc5cc(F)ccn45)c4c3C(=O)NC4)nc2)C1` (stereo not shown) [I-582, 7-((5-(3-(2-(dimethylami-no)propan-2-yl)piperidin-1-yl)pyridin-2-yl)amino)-4-(7-fluoroimidazo [1,2-a]pyridin-3-yl)isoindolin-1-one], the IC50 was less than 100 nM.

Consider `CN(C)C[C@@]1(O)CCCN(c2ccc(Nc3ccc(-c4cnc5cc(F)ccn45)c4c3C(=O)NC4)nc2)C1` [I-568, (S)-7-((5-(3-((dimethylamino)-methyl)-3-hydroxypiperidin-1-yl)pyridin-2-yl)amino)-4-(7-fluoroimidazo [1,2-a]pyridin-3-yl)isoindolin-1-one], for which the IC50 was less than 100 nM.

With `CN1CCN(c2ccc(Nc3ccc(-c4cnc5cnccn45)c4c3C(=O)NC4)nc2)CC1` [I-76, 4-imidazo[1,2-a]pyrazin-3-yl-7-[[5-(4-methylpiperazin-1-yl)-2-pyridyl]amino] isoindolin-1-one], the IC50 was less than 100 nM.

Regarding `Cc1csc2c(-c3ccc(Nc4ccc(N5CCC(O)CC5)cn4)c4c3CNC4=O)ccnc12` [I-361, 7-((5-(4-hydroxypip-eridin-1-yl)pyridin-2-yl)amino)-4-(3-methylthieno [3,2-b]pyridin-7-yl)isoindolin-1-one], the IC50 was less than 100 nM.

As to `Cn1ccc2c(-c3ncc(Nc4ccc([C@@H]5CCOC5)cn4)c4c3CNC4=O)ccnc21` [I-219, (S)-4-(1-methyl-1H-pyrrolo[2,3-b]pyridin-4-yl)-7-((5-(tetrahydro-furan-3-yl)pyridin-2-yl)amino)-2,3-dihydro-1H-pyrrolo[3,4-c]pyridin-1-one], the half-maximal inhibitory concentration (IC50) was less than 100 nM.
